Drawing on ChEMBL document CHEMBL1781918, “Quinazolin-4-piperidin-4-methyl sulfamide PC-1 inhibitors: alleviating hERG interactions through structure based design” (Bioorg Med Chem Lett, 2009), this text covers INH and Ratio for 13 compounds.

Data set [1] deals with T1, Ectonucleotide pyrophosphatase/phosphodiesterase family member 1 (Homo sapiens) (UniProt P22413).
T1 sequence (whole entry): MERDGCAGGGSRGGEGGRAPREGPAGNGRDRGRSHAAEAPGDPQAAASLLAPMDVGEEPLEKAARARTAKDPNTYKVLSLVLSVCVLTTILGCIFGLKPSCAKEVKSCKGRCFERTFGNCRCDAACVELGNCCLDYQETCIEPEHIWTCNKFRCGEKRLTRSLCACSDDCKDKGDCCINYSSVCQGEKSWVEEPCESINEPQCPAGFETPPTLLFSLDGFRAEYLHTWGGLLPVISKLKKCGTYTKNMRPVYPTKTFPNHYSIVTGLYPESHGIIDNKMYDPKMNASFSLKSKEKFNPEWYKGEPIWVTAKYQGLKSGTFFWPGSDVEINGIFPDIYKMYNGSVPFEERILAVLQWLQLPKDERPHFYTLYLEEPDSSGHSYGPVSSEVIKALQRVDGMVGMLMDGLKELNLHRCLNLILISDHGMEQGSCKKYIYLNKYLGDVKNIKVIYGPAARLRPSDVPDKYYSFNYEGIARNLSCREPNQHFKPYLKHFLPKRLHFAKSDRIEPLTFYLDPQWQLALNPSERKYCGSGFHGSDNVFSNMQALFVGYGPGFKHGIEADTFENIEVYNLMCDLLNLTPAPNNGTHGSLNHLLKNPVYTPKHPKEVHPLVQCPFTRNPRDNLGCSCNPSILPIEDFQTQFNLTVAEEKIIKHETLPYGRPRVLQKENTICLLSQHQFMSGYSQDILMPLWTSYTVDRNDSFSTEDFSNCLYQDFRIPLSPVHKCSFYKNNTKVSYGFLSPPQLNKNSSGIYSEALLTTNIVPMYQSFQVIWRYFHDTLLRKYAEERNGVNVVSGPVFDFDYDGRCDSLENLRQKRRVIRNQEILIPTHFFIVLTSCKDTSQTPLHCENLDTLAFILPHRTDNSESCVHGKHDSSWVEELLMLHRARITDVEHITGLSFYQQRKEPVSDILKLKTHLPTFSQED
Kind of data set: Inhibition of PC1 by in vitro Kinase-Glo assay. For orientation: Kinase-Glo measures the ATP left after a reaction by luminescence.

Data set [2] deals with Voltage-gated inwardly rectifying potassium channel KCNH2 (Homo sapiens, UniProt Q12809). Kind of data set: Displacement of [3H]-dofetilid from human ERG expressed in HEK293 cells. In kind it is cell-based.
Data set [3] in a line: Selectivity for PC1 to human ERG channel.

Voltage-gated inwardly rectifying potassium channel KCNH2, sequence (Q12809 whole entry): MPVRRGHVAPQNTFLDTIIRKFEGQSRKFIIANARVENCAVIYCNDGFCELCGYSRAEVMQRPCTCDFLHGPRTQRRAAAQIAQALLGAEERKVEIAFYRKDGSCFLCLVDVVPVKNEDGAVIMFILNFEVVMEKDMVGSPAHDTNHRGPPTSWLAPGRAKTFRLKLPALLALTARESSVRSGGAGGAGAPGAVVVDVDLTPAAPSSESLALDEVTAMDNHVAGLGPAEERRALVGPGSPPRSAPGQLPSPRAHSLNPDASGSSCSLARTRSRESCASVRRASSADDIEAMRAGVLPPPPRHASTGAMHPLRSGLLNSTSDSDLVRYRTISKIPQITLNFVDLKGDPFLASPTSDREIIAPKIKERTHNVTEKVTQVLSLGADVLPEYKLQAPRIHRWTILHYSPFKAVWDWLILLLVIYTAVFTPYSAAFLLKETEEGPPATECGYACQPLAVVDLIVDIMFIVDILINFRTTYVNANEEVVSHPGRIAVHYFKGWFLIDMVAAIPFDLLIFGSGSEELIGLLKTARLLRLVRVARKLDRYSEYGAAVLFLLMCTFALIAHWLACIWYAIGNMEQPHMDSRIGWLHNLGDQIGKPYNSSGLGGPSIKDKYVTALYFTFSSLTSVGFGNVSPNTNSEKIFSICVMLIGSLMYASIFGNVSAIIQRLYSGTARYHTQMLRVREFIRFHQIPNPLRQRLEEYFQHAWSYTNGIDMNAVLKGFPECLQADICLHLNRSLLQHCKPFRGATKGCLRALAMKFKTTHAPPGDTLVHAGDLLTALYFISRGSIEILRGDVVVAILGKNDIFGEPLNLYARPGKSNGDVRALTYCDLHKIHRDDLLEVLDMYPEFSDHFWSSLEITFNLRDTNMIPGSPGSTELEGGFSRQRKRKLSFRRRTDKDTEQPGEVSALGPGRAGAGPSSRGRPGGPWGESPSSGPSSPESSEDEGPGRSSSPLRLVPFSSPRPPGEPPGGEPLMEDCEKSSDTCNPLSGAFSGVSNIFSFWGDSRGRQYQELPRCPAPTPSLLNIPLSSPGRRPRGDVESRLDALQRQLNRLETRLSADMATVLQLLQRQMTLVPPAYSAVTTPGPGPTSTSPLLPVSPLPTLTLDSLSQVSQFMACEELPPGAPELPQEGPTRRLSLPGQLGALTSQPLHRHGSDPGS

Turning to `COc1ccc2c(N3CCC(CCNS(N)(=O)=O)CC3)ncnc2c1`, the INH in data set [1] turned out to be 0.187 µM; in data set [2] it was 0.1202 µM. The Ratio in data set [3] was 1.
`Cc1nccn1-c1nccc(N2CCC(CCNS(N)(=O)=O)CC2)n1`: the INH in data set [1] is 2.45 µM; in data set [2], 6.867 µM.
`CCc1nc(N2CCC(CCNS(N)(=O)=O)CC2)c2cc(OC)c(OC)cc2n1` had an INH in data set [1] of 0.214 µM.
As to `Cc1nccn1-c1cc(N2CCC(CCNS(N)(=O)=O)CC2)ncn1`, the values for the INH in data set [1] and in data set [2] were 0.6 µM and over 10 µM, respectively. Moreover, the Ratio in data set [3] is over 16.
The matching figures for `COc1cc2nc(/C=C/c3cccnc3)nc(N3CCC(CNS(N)(=O)=O)CC3)c2cc1OC`: 0.063 µM, 3.296 µM and 52.
On to `Cc1nccn1-c1cc(N2CCC(CNS(N)(=O)=O)CC2)ncn1`, for which the INH in data set [1] and in data set [2] was over 10 µM throughout.
As for `COc1cc2ncnc(N3CCC(CNS(N)(=O)=O)CC3)c2cc1OC`, the INH in data set [1] was 0.061 µM; in data set [2], over 10 µM. The Ratio in data set [3] was over 160.
The matching figures for `COc1ccc2c(N3CCC(CNS(N)(=O)=O)CC3)ncnc2c1`: 0.166 µM, over 10 µM and over 60.
In the case of `NS(=O)(=O)NCCC1CCN(c2ncnc3ccc(Cl)cc23)CC1`, in data set [1], the INH was determined as 5.98 µM.
As for `COc1cc2ncnc(N3CCC(NS(N)(=O)=O)CC3)c2cc1OC`, the INH in data set [1] and in data set [2] was over 10 µM throughout.
Turning to `NS(=O)(=O)NCCC1CCN(c2ncnc3cc(Cl)ccc23)CC1`, the INH was over 10 µM in data set [1] and 3.4 µM in data set [2].
For the compound `COc1cc2ncnc(N3CCC(CCNS(N)(=O)=O)CC3)c2cc1OC`, the figures for the INH in data set [1] and in data set [2] were 0.0362 µM and 0.601 µM, respectively. In addition, the Ratio in data set [3] came to 17.
The matching figures for `COc1cc2nc(/C=C/c3cccnc3)nc(N3CCC(CCNS(N)(=O)=O)CC3)c2cc1OC`: 0.0353 µM, 0.276 µM and 8.
